Reference: the supplement of paper PMC10307832

Assays:
Assay in all cases: relative viability (nuclei count vs DMSO), 5 days (fraction); higher = more cells survive
NCI-H1793 = tested on: NCI-H1793
How it was run: (§1)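 Nuclei were stained with Hoechst during a one-step fixation (final 0.05% Triton X-100, 1% formaldehyde, 1 ug/ml Hoechst) carried out 5 days after dosing, then counted on 4× images. The cells, lung cancer lines in 1536-well plates, had been dosed by pin tool the day after seeding with one drug alone or a fixed anchor-drug dose plus five library-drug doses (not always all listed) in √10 steps. Relative viability is the nuclei count in treated wells divided by that in vehicle wells, and each value is the median of duplicate plates.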

NCI-H1650 = tested on: NCI-H1650
How it was run: as §1

HCC-44 = tested on: HCC-44
How it was run: as §1

201T = tested on: 201T
How it was run: as §1

NCI-H2085 = tested on: NCI-H2085
How it was run: as §1

COR-L23 = tested on: COR-L23
How it was run: as §1

NCI-H1563 = tested on: NCI-H1563
How it was run: as §1

NCI-H2347 = tested on: NCI-H2347
How it was run: as §1

NCI-H2405 = tested on: NCI-H2405
How it was run: as §1

NCI-H2023 = tested on: NCI-H2023
How it was run: as §1

NCI-H520 = tested on: NCI-H520
How it was run: as §1

NCI-H3122 = tested on: NCI-H3122
How it was run: as §1

NCI-H1734 = tested on: NCI-H1734
How it was run: as §1

RERF-LC-KJ = tested on: RERF-LC-KJ
How it was run: as §1

H3255 = tested on: H3255
How it was run: as §1

NCI-H2170 = tested on: NCI-H2170
How it was run: as §1

EPLC-272H = tested on: EPLC-272H
How it was run: as §1

PC-14 = tested on: PC-14
How it was run: as §1

NCI-H647 = tested on: NCI-H647
How it was run: as §1

NCI-H1993 = tested on: NCI-H1993
How it was run: as §1

LOU-NH91 = tested on: LOU-NH91
How it was run: as §1

For `NC(=O)Nc1cc(-c2cccc(F)c2)sc1C(=O)N[C@H]1CCCNC1` [AZD7762] + CS(=O)(=O)CCNCc1ccc(-c2ccc3ncnc(Nc4ccc(OCc5cccc(F)c5)c(Cl)c4)c3c2)o1 [Lapatinib] (partner 2 µM), the relative viability (NCI-H1793; first compound 0.01 µM) was 1.08, the relative viability (NCI-H1793; first compound 0.03162 µM) was 0.721 and the relative viability (NCI-H1793; first compound 0.1 µM) was 0.805. For the same molecule, the relative viability (NCI-H1793; first compound 0.3162 µM) was 0.874, the relative viability (NCI-H1793; first compound 1 µM) was 0.261 and the relative viability (NCI-H1650; first compound 0.01 µM) was 0.747. It also gave a relative viability (NCI-H1650; first compound 0.03162 µM) of 0.852, a relative viability (NCI-H1650; first compound 0.1 µM) of 0.896 and a relative viability (NCI-H1650; first compound 0.3162 µM) of 0.434. The relative viability (NCI-H1650; first compound 1 µM) was 0.167, the relative viability (HCC-44; first compound 0.01 µM) was 1.11 and the relative viability (HCC-44; first compound 0.03162 µM) was 0.952. It also gave a relative viability (HCC-44; first compound 0.1 µM) of 0.998, a relative viability (HCC-44; first compound 0.3162 µM) of 0.932 and a relative viability (HCC-44; first compound 1 µM) of 0.99. The relative viability (201T; first compound 0.01 µM) was 1.03, the relative viability (201T; first compound 0.03162 µM) was 0.99 and the relative viability (201T; first compound 0.1 µM) was 1.03. It also gave a relative viability (201T; first compound 0.3162 µM) of 1.15, a relative viability (201T; first compound 1 µM) of 1.15 and a relative viability (NCI-H2085; first compound 0.01 µM) of 0.804. For the same molecule, the relative viability (NCI-H2085; first compound 0.03162 µM) was 0.878, the relative viability (NCI-H2085; first compound 0.1 µM) was 0.873 and the relative viability (NCI-H2085; first compound 0.3162 µM) was 0.78. It also gave a relative viability (NCI-H2085; first compound 1 µM) of 0.6, a relative viability (COR-L23; first compound 0.01 µM) of 1.16 and a relative viability (COR-L23; first compound 0.03162 µM) of 1.06. For the same molecule, the relative viability (COR-L23; first compound 0.1 µM) was 0.953, the relative viability (COR-L23; first compound 0.3162 µM) was 0.729 and the relative viability (COR-L23; first compound 1 µM) was 0.131. The relative viability (NCI-H1563; first compound 0.01 µM) was 0.868, the relative viability (NCI-H1563; first compound 0.03162 µM) was 1.04 and the relative viability (NCI-H1563; first compound 0.1 µM) was 1.04. It also gave a relative viability (NCI-H1563; first compound 0.3162 µM) of 0.982, a relative viability (NCI-H1563; first compound 1 µM) of 0.904 and a relative viability (NCI-H2347; first compound 0.01 µM) of 1.11. It also gave a relative viability (NCI-H2347; first compound 0.03162 µM) of 0.986, a relative viability (NCI-H2347; first compound 0.1 µM) of 1.07 and a relative viability (NCI-H2347; first compound 0.3162 µM) of 0.934. It also gave a relative viability (NCI-H2347; first compound 1 µM) of 1.17, a relative viability (NCI-H2405; first compound 0.01 µM) of 1.11 and a relative viability (NCI-H2405; first compound 0.03162 µM) of 1.41. It also gave a relative viability (NCI-H2405; first compound 0.1 µM) of 0.998, a relative viability (NCI-H2405; first compound 0.3162 µM) of 1.01 and a relative viability (NCI-H2405; first compound 1 µM) of 0.422. For the same molecule, the relative viability (NCI-H2023; first compound 0.01 µM) was 0.601, the relative viability (NCI-H2023; first compound 0.03162 µM) was 0.758 and the relative viability (NCI-H2023; first compound 0.1 µM) was 0.366. It also gave a relative viability (NCI-H2023; first compound 0.3162 µM) of 0.198, a relative viability (NCI-H2023; first compound 1 µM) of 0.102 and a relative viability (NCI-H520; first compound 0.01 µM) of 0.825. The relative viability (NCI-H520; first compound 0.03162 µM) was 0.864, the relative viability (NCI-H520; first compound 0.1 µM) was 0.735 and the relative viability (NCI-H520; first compound 0.3162 µM) was 0.304. For the same molecule, the relative viability (NCI-H520; first compound 1 µM) was 0.254, the relative viability (NCI-H3122; first compound 0.01 µM) was 0.978 and the relative viability (NCI-H3122; first compound 0.03162 µM) was 1.06. For the same molecule, the relative viability (NCI-H3122; first compound 0.1 µM) was 1.03, the relative viability (NCI-H3122; first compound 0.3162 µM) was 0.907 and the relative viability (NCI-H3122; first compound 1 µM) was 1.09. For the same molecule, the relative viability (NCI-H1734; first compound 0.01 µM) was 0.974, the relative viability (NCI-H1734; first compound 0.03162 µM) was 1.16 and the relative viability (NCI-H1734; first compound 0.1 µM) was 1.13. It also gave a relative viability (NCI-H1734; first compound 0.3162 µM) of 0.946, a relative viability (NCI-H1734; first compound 1 µM) of 0.67 and a relative viability (RERF-LC-KJ; first compound 0.01 µM) of 0.865. It also gave a relative viability (RERF-LC-KJ; first compound 0.03162 µM) of 0.894, a relative viability (RERF-LC-KJ; first compound 0.1 µM) of 0.849 and a relative viability (RERF-LC-KJ; first compound 0.3162 µM) of 0.819. The relative viability (RERF-LC-KJ; first compound 1 µM) was 0.956, the relative viability (H3255; first compound 0.01 µM) was 0.316 and the relative viability (H3255; first compound 0.03162 µM) was 0.256. The relative viability (H3255; first compound 0.1 µM) was 0.244, the relative viability (H3255; first compound 0.3162 µM) was 0.264 and the relative viability (H3255; first compound 1 µM) was 0.244. The relative viability (NCI-H2170; first compound 0.01 µM) was 0.289, the relative viability (NCI-H2170; first compound 0.03162 µM) was 0.256 and the relative viability (NCI-H2170; first compound 0.1 µM) was 0.26. For the same molecule, the relative viability (NCI-H2170; first compound 0.3162 µM) was 0.263, the relative viability (NCI-H2170; first compound 1 µM) was 0.257 and the relative viability (EPLC-272H; first compound 0.01 µM) was 0.875. For the same molecule, the relative viability (EPLC-272H; first compound 0.03162 µM) was 1.19, the relative viability (EPLC-272H; first compound 0.1 µM) was 0.846 and the relative viability (EPLC-272H; first compound 0.3162 µM) was 0.967. For the same molecule, the relative viability (EPLC-272H; first compound 1 µM) was 0.912, the relative viability (PC-14; first compound 0.01 µM) was 0.345 and the relative viability (PC-14; first compound 0.03162 µM) was 0.305. The relative viability (PC-14; first compound 0.1 µM) was 0.348, the relative viability (PC-14; first compound 0.3162 µM) was 0.256 and the relative viability (PC-14; first compound 1 µM) was 0.299. For the same molecule, the relative viability (NCI-H647; first compound 0.01 µM) was 1.14, the relative viability (NCI-H647; first compound 0.03162 µM) was 1.12 and the relative viability (NCI-H647; first compound 0.1 µM) was 0.963. It also gave a relative viability (NCI-H647; first compound 0.3162 µM) of 0.519, a relative viability (NCI-H647; first compound 1 µM) of 0.0944 and a relative viability (NCI-H1993; first compound 0.01 µM) of 0.791. For the same molecule, the relative viability (NCI-H1993; first compound 0.03162 µM) was 0.789, the relative viability (NCI-H1993; first compound 0.1 µM) was 0.664 and the relative viability (NCI-H1993; first compound 0.3162 µM) was 0.89. For the same molecule, the relative viability (NCI-H1993; first compound 1 µM) was 0.793, the relative viability (LOU-NH91; first compound 0.01 µM) was 0.792 and the relative viability (LOU-NH91; first compound 0.03162 µM) was 0.791. It also gave a relative viability (LOU-NH91; first compound 0.1 µM) of 0.753, a relative viability (LOU-NH91; first compound 0.3162 µM) of 0.572 and a relative viability (LOU-NH91; first compound 1 µM) of 0.639.
